Reference: patent US20110236921A1, “CELL SYSTEM” (GE HEALTHCARE UK LIMITED, priority 2010, published 2011)

Legend:
WM115-Gal cells = assay: live-cell validation, cell viability (cell number) by nuclear-channel imaging, respiring cell line; type: cell-based, human; conditions: WM115-Gal (glucose-free galactose medium), 384-well live-cell plate; as low as 0.1 μM; low cell density at 0.1 μM→10.0 μM
Experimental: (§1) Live cells are clearly visible in the full concentration range for WM115-Glu cells, but not for WM115-Gal cells (low cell density in 0.1 μM→10.0 μM antimycin A). FIG. 4b is a graphical representation of the same data.
(§2) Antimycin A acts on respiration […] of the electron transport chain. Glucose-deprived cells (WM115-Gal) are dependent on mitochondrial respiration for ATP, and are therefore sensitive to antimycin A. In contrast, the WM115-Glu cells grown in glucose-rich media are reliant on glycolysis for ATP generation and as predicted, these cells appear resistant to antimycin A.

WM115-Glu cells = assay: live-cell validation, cell viability (cell number) by nuclear-channel imaging, glycolytic cell line; type: cell-based, human; conditions: WM115-Glu (glucose-rich medium), 384-well live-cell plate, tested at 10.0 μM; live cells visible over full concentration range
Experimental: as §1, §2

antimycin A
sensitivity of cells to drug (live cells visible / cell number) (WM115-Gal cells): susceptible
sensitivity of cells to drug (live cells visible / cell number) (WM115-Glu cells): resistant
